Test results taken from US6472391B2, “Nitrogen-containing heterocyclic compounds” (Millennium Pharmaceuticals, Inc., priority 1996, dated 2002).

Compound | melting point [°C]
CCOc1cc2c(N3CCN(C(=S)NCc4ccccc4)CC3)ncnc2cc1OC [Compound 348, N-Benzyl-4-(6-ethoxy-7-methoxy-4-quinazolinyl)-1-piperazinethiocarboxamide] | 170 to 171
S=C(NCc1ccccc1)N1CCN(c2ccnc3cc(Cl)ccc23)CC1 [Compound 405, N-Benzyl-4-(7-chloro-4-quinolyl)-1-piperazinethiocarboxamide] | 84 to 86
COc1cc2ncnc(N3CCN(C(=S)NCc4ccc(Cl)cc4)CC3)c2cc1OC [Compound 42, N-(4-Chlorobenzyl)-4-(6,7-dimethoxy-4-quinazolinyl)-1-piperazinethiocarboxamide] | 218 to 220
Fc1cc2ncnc(N3CCN(C(=S)NCc4cccnc4)CC3)c2cc1F [Compound 331, 4-(6,7-Difluoro-4-quinazolinyl)-N-(3-picolyl)-1-piperazinethiocarboxamide] | 177 to 178
COc1cc2ncnc(N3CCN(C(=S)NC(=O)C=Cc4ccccc4)CC3)c2cc1OC [Compound 143, N-Cinnamoyl-4-(6,7-dimethoxy-4-quinazolinyl)-1-piperazinethiocarboxamide] | 184 to 186
COc1cc2ccnc(N3CCN(C(=S)NCc4ccccc4)CC3)c2cc1OC [Compound 424, N-Benzyl-4-(6,7-dimethoxy-1-isoquinolyl)-1-piperazinethiocarboxamide] | 171 to 172
S=C(NCc1cccnc1)N1CCN(c2ncnc3cc4c(cc23)OCCO4)CC1 [Compound 375, 4-(6,7-Ethylenedioxy-4-quinazolinyl)-N-(3-picolyl)-1-piperazinethiocarboxamide] | 110 to 113
COc1cc2ncnc(N3CCN(C(=S)Nc4ccc(N=Nc5ccc(N(C)C)cc5)cc4)CC3)c2cc1OC [Compound 74, 4-(6,7-Dimethoxy-4-quinazolinyl)-N-[4-(4-dimethylaminophenylazo)phenyl]-1-piperazinethiocarboxamide] | 148 to 149
COc1cc2nc(Cl)nc(N3CCN(C(=O)Nc4ccc(Oc5ccccc5)cc4)CC3)c2cc1OC [Compound 392, 4-(2-Chloro-6,7-dimethoxy-4-quinazolinyl)-N-(4-phenoxyphenyl)-1-piperazinecarboxamide] | 178 to 179
Cc1ccc2c(N3CCN(C(=O)Nc4ccc([N+](=O)[O-])cc4)CC3)ncnc2c1 [Compound 313, 4-(7-Methyl-4-quinazolinyl)-N-(4-nitrophenyl)-1-piperazinecarboxamide] | 251 to 254
Cc1ccc2nc(C(F)(F)F)cc(N3CCN(C(=O)Nc4ccc(Oc5ccccc5)cc4)CC3)c2c1[N+](=O)[O-] [Compound 413, 4-(6-Methyl-5-nitro-2-trifluoromethyl-4-quinolyl)-N-(4-phenoxyphenyl)-1-piperazinecarboxamide] | 197 to 198
S=C(NCc1ccccc1)N1CCN(c2ncnc3cc4ccccc4cc23)CC1 [Compound 365, 4-(4-Benzo[g]quinazolinyl)-N-benzyl-1-piperazinethiocarboxamide] | 187 to 188
FC(F)(F)Oc1ccc2nccc(N3CCN(C(=S)NCc4ccccc4)CC3)c2c1 [Compound 403, N-Benzyl-4-(6-trifluoromethoxy-4-quinolyl)-1-piperazinethiocarboxamide] | 70 to 71
COc1ccc2ncnc(N3CCN(C(=O)Nc4ccc([N+](=O)[O-])cc4)CC3)c2c1 [Compound 308, 4-(6-Methoxy-4-quinazolinyl)-N-(4-nitrophenyl)-1-piperazinecarboxamide] | 228 to 229
COc1cc2ncnc(N3CCN(C(=S)Nc4cc(O)nc(O)n4)CC3)c2cc1OC [Compound 277, N-(2,6-Dihydroxy-4-pyrimidinyl)-4-(6,7-dimethoxy-4-quinazolinyl)-1-piperazinethiocarboxamide] | 283 to 285
COc1cc2ncnc(N3CCN(C(=S)N[C@@H](C)c4ccccc4)CC3)c2cc1OC [Compound 129, (S)-4-(6,7-Dimethoxy-4-quinazolinyl)-N-(1-phenylethyl)-1-piperazinethiocarboxamide] | 98 to 100
COc1cc2nc(N3CCOCC3)nc(N3CCN(C(=O)Nc4ccc(Oc5ccccc5)cc4)CC3)c2cc1OC [Compound 393, 4-(6,7-Dimethoxy-2-morpholino-4-quinazolinyl)-N-(4-phenoxyphenyl)-1-piperazinecarboxamide] | 114 to 116
S=C(NCc1ccc(Cl)cc1)N1CCN(c2ccnc3ccc(Cl)cc23)CC1 [Compound 401, N-(4-Chlorobenzyl)-4-(6-chloro-4-quinolyl)-1-piperazinethiocarboxamide] | 89 to 90
S=C(NCc1cccnc1)N1CCN(c2ncnc3cc4c(cc23)OCO4)CC1 [Compound 371, 4-(6,7-Methylenedioxy-4-quinazolinyl)-N-(3-picolyl)-1-piperazinethiocarboxamide] | 167 to 168
Cl.Cl.S=C(NCc1cccnc1)N1CCN(c2ccnc3ccc(Cl)cc23)CC1 | 162 to 164
COc1cc2ncnc(N3CCN(C(=S)Nc4ccc(OCc5ccccc5)cc4)CC3)c2cc1OC [Compound 63, N-(4-Benzyloxyphenyl)-4-(6,7-dimethoxy-4-quinazolinyl)-1-piperazinethiocarboxamide] | 103 to 105
CCOc1cc2c(N3CCN(C(=O)Nc4ccc(Oc5ccccc5)cc4)CC3)ncnc2cc1OC [Compound 346, 4-(6-Ethoxy-7-methoxy-4-quinazolinyl)-N-(4-phenoxyphenyl)-1-piperazinecarboxamide] | 213 to 214
O=C(Nc1ccc(Oc2ccccc2)cc1)N1CCN(c2ncnc3cc(OCc4ccccc4)c(OCc4ccccc4)cc23)CC1 [Compound 355, 4-(6,7-Dibenzyloxy-4-quinazolinyl)-N-(4-phenoxyphenyl)-1-piperazinecarboxamide] | 137 to 138

Results, then the compound that gave them:

melting point [°C] | Compound
76 to 80 | COc1cc2ncnc(N3CCN(C(=S)NCCc4ccccc4)CC3)c2cc1OC [Compound 6, 4-(6,7-Dimethoxy-4-quinazolinyl)-N-(2-phenylethyl)-1-piperazinethiocarboxamide]
196 to 197 | COc1ccc(CNC(=S)N2CCN(c3ncnc4cc(OC)c(OC)cc34)CC2)cc1OC [Compound 205, N-(3,4-Dimethoxybenzyl)-4-(6,7-dimethoxy-4-quinazolinyl)-1-piperazinethiocarboxamide]
208 to 209 | COC(=O)c1ccc(NC(=S)N2CCN(c3ncnc4cc(OC)c(OC)cc34)CC2)cc1 [Compound 249, 4-(6,7-Dimethoxy-4-quinazolinyl)-N-(4-methoxycarbonylphenyl)-1-piperazinethiocarboxamide]
213 to 215 | COc1cc2ncnc(N3CCN(C(=O)Nc4cc(C)c(C)cc4[N+](=O)[O-])CC3)c2cc1OC [Compound 237, 4-(6,7-Dimethoxy-4-quinazolinyl)-N-(4,5-dimethyl-2-nitrophenyl)-1-piperazinecarboxamide]
188 to 189 | COc1cc2c(N3CCN(C(=O)Nc4ccc(Oc5ccccc5)cc4)CC3)ncnc2cc1C [Compound 333, 4-(6-Methoxy-7-methyl-4-quinazolinyl)-N-(4-phenoxyphenyl)-1-piperazinecarboxamide]
169 to 170 | COc1cc2ncnc(N3CCN(C(=S)Nc4cccc(C#N)c4)CC3)c2cc1OC [Compound 238, N-(3-Cyanophenyl)-4-(6,7-dimethoxy-4-quinazolinyl)-1-piperazinethiocarboxamide]
218 to 220 | COc1cc2ncnc(N3CCN(C(=S)Nc4ccncc4)CC3)c2cc1OC [Compound 268, 4-(6,7-Dimethoxy-4-quinazolinyl)-N-(4-pyridyl)-1-piperazinethiocarboxamide]
198 to 199 | COc1cc2ncnc(N3CCN(C(=O)Nc4cc(OC)c(OC)c(OC)c4)CC3)c2cc1OC [Compound 212, 4-(6,7-Dimethoxy-4-quinazolinyl)-N-(3,4,5-trimethoxyphenyl)-1-piperazinecarboxamide]
117 to 119 | COc1cc2ncnc(N3CCN(C(=S)Nc4ccc(C(F)(F)F)cc4)CC3)c2cc1OC [Compound 159, 4-(6,7-Dimethoxy-4-quinazolinyl)-N-(4-trifluoromethylphenyl)-1-piperazinethiocarboxamide]
252 to 254 | COc1cc2ncnc(N3CCN(C(=O)Nc4ccc(N(C)C)cc4)CC3)c2cc1OC [Compound 222, 4-(6,7-Dimethoxy-4-quinazolinyl)-N-(4-dimethylaminophenyl)-1-piperazinecarboxamide]
195 to 197 | CCc1cccc(NC(=S)N2CCN(c3ncnc4cc(OC)c(OC)cc34)CC2)c1 [Compound 149, 4-(6,7-Dimethoxy-4-quinazolinyl)-N-(3-ethylphenyl)-1-piperazinethiocarboxamide]
202 to 203 | COc1cc2ncnc(N3CCN(C(=O)Nc4ccc(C)c(C)c4)CC3)c2cc1OC [Compound 30, 4-(6,7-Dimethoxy-4-quinazolinyl)-N-(3,4-dimethylphenyl)-1-piperazinecarboxamide]
108 to 110 | COc1cc2ncnc(N3CCN(C(=S)NCc4ccc(C)c(Cl)c4)CC3)c2cc1OC [Compound 190, N-(3-Chloro-4-methylbenzyl)-4-(6,7-dimethoxy-4-quinazolinyl)-1-piperazinethiocarboxamide]
180 to 181 | COc1cc2ncnc(N3CCN(C(=O)Nc4cccc(SC)c4)CC3)c2cc1OC [Compound 217, 4-(6,7-Dimethoxy-4-quinazolinyl)-N-(3-methylthiophenyl)-1-piperazinecarboxamide]
187 to 189 | COc1cc2ncnc(N3CCN(C(=O)Nc4cc(F)ccc4F)CC3)c2cc1OC [Compound 51, N-(2,5-Difluorophenyl)-4-(6,7-dimethoxy-4-quinazolinyl)-1-piperazinecarboxamide]
187 to 189 | COc1cc2ncnc(N3CCN(C(=S)NC(=O)c4ccco4)CC3)c2cc1OC [Compound 95, 4-(6,7-Dimethoxy-4-quinazolinyl)-N-(2-furoyl)-1-piperazinethiocarboxamide]
160 to 161 | COc1cc2ncnc(N3CCN(C(=S)Nc4ccc(Br)c(C)c4)CC3)c2cc1OC [Compound 191, N-(4-Bromo-3-methylphenyl)-4-(6,7-dimethoxy-4-quinazolinyl)-1-piperazinethiocarboxamide]
